Assay results as given in patent publication US20250281665A1, “BIONIC DRESSING-FORMING COMPOSITION, BIONIC DRESSING, AND METHOD OF FORMING THE BIONIC DRESSING” (THE HONG KONG POLYTECHNIC UNIVERSITY, priority 2024, published 2025).

Test system: 3T3 cells
Experiment: Biocompatibility evaluation (live/dead, CCK-8, extract medium)
Type: cell-based
Protocol: The tests in this example were conducted under the following conditions/standards. • 5. Mechanical property test: The mechanical properties of bionic excipients were based on the ASTM F2458-05 standard. GelMA, PGLADMA and double-layer GelMA/PGLADMA samples with a size of 20×5 mm were prepared and stretched at a rate of 1 mm/min using a two-arm mechanical tensile instrument at room temperature, and the mechanical properties were calculated, where tensile elastic modulus=stress/strain. For example, reference can be made to the test method in Theocharidis G, Yuk H, Roh H, et al. A strain-programmed patch for the healing of diabetic wounds [J]. Nature biomedical engineering, 2022, 6 (10): 1118-1133. • 6. Hemostatic property: For the hemostatic properties of bionic excipients, for example, reference can be made to Guo Y, Wang Y, Zhao X, et al. Snake extract-laden hemostatic bioadhesive gel cross-linked by visible light [J]. Science Advances, 2021, 7 (29): cabf9635. • 7. […] After 1, 2, and 3 days of incubation, cell viability and cell proliferation were evaluated using a live/dead cell detection kit (Thermo Fisher, Hong Kong) and a CCK-8 kit (Sigma-Aldrich, Hong Kong), respectively. […]

SMILES: Oc1cc(Cl)ccc1Oc1ccc(Cl)cc1Cl [TCS, triclosan]
- toxicity to cells (TCS concentration below 5%): no toxicity
- toxicity to cells (TCS concentration of around 10%): only slightly toxic
